Results taken from patent US20050058658A1, “Compositions and methods for immunotherapy of human immunodeficiency virus (HIV)” (priority 2003, published 2005).

B1: IL-1β: interleukin (protein, UniProt P10749 118-269, looked up)
Interleukin-1 beta: VPIRQLHYRLRDEQQKSLVLSDPYELKALHLNGQNINQQVIFSMSFVQGEPSNDKIPVALGLKGKNLYLSCVMKDGTPTLQLESVDPKQYPKKKMEKRFVFNKIEVKSKVEFESAEFPNWYISTSQAEHKPVFLGNNSGQDIIDFTMESVSS
B2: IL-2: Interleukin 2 (protein, UniProt P04351 21-169, looked up)
Interleukin-2: APTSSSTSSSTAEAQQQQQQQQQQQQHLEQLLMDLQELLSRMENYRNLKLPRMLTFKFYLPKQATELKDLQCLEDELGPLRHVLDLTQSKSFQLEDAENFISNIRVTVVKLKGSDNTFECQFDDESATVVDFLRRWIAFCQSIISTSPQ
B3: IL-10: interleukin (protein, UniProt P18893 19-178, looked up)
Interleukin-10: SRGQYSREDNNCTHFPVGQSHMLLELRTAFSQVKTFFQTKDQLDNILLTDSLMQDFKGYLGCQALSEMIQFYLVEVMPQAEKHGPEIKEHLNSLGEKLKTLRMRLRRCHRFLPCENKSKAVEQVKSDFNKLQDQGVYKAMNEFDIFINCIEAYMMIKMKS
B4: IL-18: interleukin (protein, UniProt P70380 36-192, looked up)
Interleukin-18: NFGRLHCTTAVIRNINDQVLFVDKRQPVFEDMTDIDQSASEPQTRLIIYMYKDSEVRGLAVTLSVKDSKMSTLSCKNKIISFEEMDPPENIDDIQSDLIFFQKRVPGHNKMEFESSLYEGHFLACQKEDDAFKLILKKKDENGDKSVMFTLTNLHQS

Tests used:
[1] = system: freshly isolated dendritic cells (CD11c+ splenocytes); test: Dendritic cell (DC) assay: IL-12 release; format: cell-based, BALB/c mice; details: for DC/mIL12 Release: tested for synergism and inhibition
From the text: In a preferred embodiment, dendritic cell (DC) assay is used to follow interleukin-12 (IL-12) release from freshly isolated dendritic cells as an index of DC activation (see section 13). […] Briefly, by way of example but not limitation, a DC assay can be carried out as follows: freshly isolated dendritic cells (CD11c^+ splenocytes, e.g., isolated from the spleens of BALB/c mice within ten hours of assaying the activity) are suspended at a density of 0.5×10^6 cells per mL in cytokine supplemented culture media (GM-CSF, 1.0 ng/ml; IL-4, 1.0 ng/ml; IFNg, 3 ng/ml; anti mouse CD40; 0.5 mg/ml). […] Mouse IL-12 release from the dendritic cells (CD11c^+ splenocytes) is then measured using ELISA.
DCs were isolated from the spleens of male BALB/c mice 8-12 weeks of age (Harlan Bioproducts for Science, Indianapolis, Ind.), using the magnetic assisted cell separation (MACS) system purchased from Miltenyi Biotech. In summary: Spleens were aseptically removed from mice and placed into a petri dish containing 5 mL holding media (DMEM/F12 supplemented with 10% FCS and antibiotics). Each spleen was then injected with ˜0.5 mls collagenase D solution (1 mg/mL in 10 mM Hepes-NaOH, pH 7.4, 150 mM NaCl, 5 mM MgCl2, 1.8 mM CaCl2), placed into 5-10 mL collagenase D, cut into 5-6 pieces and incubated at 37° C. for 45-60 min. Collagenase-digested spleens were then processed with glass slides and passed through a 70 μm nylon mesh cell strainer. After the strainer was flushed with 40 mL culture media, cells were centrifuged (8 min @ 200×G), suspended in 1 mL PBS and subjected to red blood cell lysis by incubating the cell suspension for 5 min at room temperature in 10 mL lysis buffer (155 mM NH4Cl, 10 mM KHCO3, 0.1 mM EDTA), followed by dilution in PBS to 50 mL and centrifugation (8 min @ 200×g). The splenocytes were then suspended in 10 mL MACS buffer (PBS pH 7.2, supplemented with 2 mM EDTA and 0.5% BSA), passed through a 40 μm nylon mesh cell strainer which was flushed with 40 mL MACS buffer. A preliminary cell count was taken at this time, prior to centrifugation (8 min @ 200×G). The splenocytes were suspended at a density of 10^8 cells per 400 μL MACS buffer. Paramagnetic MicroBeads coated with anti-CD11c antibody were mixed with the splenocyte suspension (100 μL per 10^8 cells), incubated at +4° C. for 15 min, washed, suspended in 1.0 mL MACS buffer and passed through a MS+separation column placed within a strong magnetic field. CD11c^+ cells were retained in the column whereas CD11c^− cells were washed off the column as the flow-through cell fraction. CD11c^+ cells were then collected by removing the column out of the magnetic field and flushing the column twice with 1 mL of MACS buffer. CD11c^+ cells were washed once with culture media and suspended at a density of 0.5×10^6 cells per mL in cytokine supplemented culture media {DMEM/F12 supplemented with 10% FCS and gentamicin containing mouse GM-CSF (1 ng/mL), mouse IL-4 (1 ng/mL), mouse IFNγ (3 ng/mL) and anti mouse CD40 (0.5 mg/mL)}.
Mouse IL12 release from CD11c^+ splenocytes was measured using ELISA. Briefly, CD11c+ cell culture supernatants were sampled following an overnight incubation (usually 15-18 hrs). Media samples (100 μL) were added to ELISA plates coated with anti mouse IL12 (p70) capture antibody (R&D #MAB419; 250 ng in 100 μL per well) and incubated either at 37° C. or room temperature for 2 hrs. The ELISA plates were washed extensively with wash buffer after which 100 μL per well of detection antibody/detection reagent (biotinylated anti-mouse IL12; R&D #BAF419 at 50 ng/mL and streptavidin-HRP) was added. The ELISA plates were again incubated for 2 hours, washed and exposed to […] substrate solution (Pierce #34021) for 20 min. The substrate reaction was stopped by adding 100 μL/well 2M H2SO4. ELISA plates were read at 450 nm (corrected at 540 nm) and mIL12(p70) levels were calculated using an intra-ELISA standard curve (range: 2000-31.25 pg/mL).

Mouse sarcoma 180 cells = format: cell-based; details: for Enhancement of NK-CMC compared to BEX: same conditions as BEX; for NK-CMC Activity: wide range of concentrations, in the presence and absence of IL-2 (125 U/ml)
Protocol: In one embodiment, a NK cell assay is used to assess ARP-induced cytotoxic activity of NK-like cells. Briefly, by way of example but not limitation, a NK cell assay can be carried out as follows: large granular lymphocytes (LGLs) are co-cultured with tumor cells at various ratios (effector to target ratio) for four days at 37° C., 5% CO2. […] The culture is terminated at the end of day 4 and vitally stained using a MTT cell viability quantification assay (see Mossman, T. J. Immunol. Methods 1983, 65:55; and Sigma Chemical MTT (M5655) product application note). Culture media is aspirated and the remaining cells are washed and replaced with DMEM/F12 plus FCS, containing MTT. The cells are further incubated for 4-5 hours at 37° C. Absorbance is measured with the aid of a plate reader. Decreased absorbance indicated a decrease in the number of viable cells per well (i.e., cytotoxicity). Absorbance is measured again after the MTT is solubilized by replacement of the medium with 2-propanol containing HCl, which gives a uniform color throughout the well. NK-inducing activity is calculated relative to negative (PBS/BSA) and positive (internal standard) controls.
Spleens (10-15 per experiment) were aseptically removed from male Balb/C mice 6-10 weeks of age. Splenocytes were “squeezed” out of spleens using 2 sterile glass microscope slides. Cells were collected in approximately 10 ml of DMEM/F12 containing 10% fetal calf serum (FCS) and gentamicin (50 μg/ml). Single cell suspensions were generated by passing collected cells through a 70 μm nylon mesh screen. After washing the cell pellet once with PBS (centrifuged at 675×g for 5 min), red blood cells were lysed by brief hypotonic shock (i.e. exposure to sterile distilled, deionized water, followed immediately with appropriate volumes of 10×PBS to return to isotonicity). Remaining cells were centrifuged and resuspended in DMEM/F12+10% FCS and transferred to 75 cm^2 flasks each containing 25 mls DMEM/F12+10% FCS (cells from 5 spleens per flask). The cells were incubated for 60 min. at 37° C. to selectively remove readily adherent cells (mainly fibroblasts and macrophages). After the incubation, the flasks were gently shaken and the non-adherent cells were removed, pelleted by centrifugation, and resuspended in DMEM/F12 (no supplements) (1.0 mL/10^8 cells). A 1.0 mL volume of these cell suspensions were carefully layered onto a 70%/60%/40% (2 mL/4 mL/4 mL) Percoll™ gradients in 15 ml centrifuge tubes and centrifuged for 30 min at 675×G. The cells which sediment at the 40/60 interface represent primarily large granular lymphocytes (LGLs), enriched with NK cells. These cells were carefully removed with a pasteur pipet, centrifuged, washed once with PBS and resuspended in approximately 5 mL DMEM/F12 supplemented with gentamicin (50 μg/mL) and 10% fetal calf serum. Cell counts and appropriate dilutions of LGL cells were made with these cells, as described below. For convenience this LGL cell preparation is interchangeably referred to as NK cells.
Mouse sarcoma 180 cells were seeded into 96 well plates at a density of 5×10^3 cells per well in 100 μl DMEM/F12, supplemented with 10% FCS and gentamicin (50 μg/mL). […] NK cells were added in 100 μL of supplemented DMEM/F12 at designated densities: 0 NK cells/well; 5×10^4 NK cells/well (1:10 target/effector ratio); 1.25×10^5 NK cells/well (1:25 target/effector ratio); 2.5×10^5 NK cells/well (1:50 target/effector ratio); and, 5×10^5 NK cells/well (1:100 target/effector ratio). (Note: routinely, only the 1:50 and 1:100 ratios were used for screening purposes. IL2 was added as a media supplement with final concentration of 125 U/mL.). Co-cultures were incubated for 4 days at 37° C., 5% CO2, and terminated and vitally stained using a MTT cell viability quantification assay (see Mossman, T. J. Immunol. Methods 65:55 (1983); and Sigma Chemical MTT (M5655) product application note). […]

Molecule | DC/mIL12 Release [1] | NK-CMC Activity (Mouse sarcoma 180 cells) | further results
TNFα | − |  | Enhancement of NK-CMC compared to BEX (Mouse sarcoma 180 cells): relatively weak enhancers
[Cl][Cu][Cl] [CuCl2] |  |  | Inhibition of DC-activity induced by crude ARP preparations [1]: inhibition of activity in mM-μM concentration range
FGFbasic: growth factor | − | − | 
[Cl-].[Cl-].[Zn+2] [ZnCl2] |  |  | Inhibition of DC-activity induced by crude ARP preparations [1]: inhibition of activity in mM-μM concentration range
IL-5: interleukin | − | − | 
TGFβ | − | − | 
[Ca+2].[Cl-].[Cl-] [CaCl2] |  |  | Inhibition of DC-activity induced by crude ARP preparations [1]: did not
[Cl-].[Cl-].[Mg+2] [MgCl2] |  |  | Inhibition of DC-activity induced by crude ARP preparations [1]: did not
IFNγ: Interferon gamma | − |  | NK-inducing activity (Mouse sarcoma 180 cells): slight increase in NK-CMC; maximal response, cytotoxicity (Mouse sarcoma 180 cells): ^6Weakly activates NK cells in the presence of IL-2 (maximal response < 50% cytotoxicity).; Enhancement of NK-CMC compared to BEX (Mouse sarcoma 180 cells): relatively weak enhancers
IL-6: interleukin | − | − | 
B1 | − | −^3 | 
B2 | − |  | Effect on NK-CMC (footnotes of Table 16) (Mouse sarcoma 180 cells): ^4IL-2 significantly increases NK-CMC only at high concentrations.; basal NK-CMC activity (Mouse sarcoma 180 cells; IL2 alone (125 U/ml), highest NK:S180 ratio (100_NK)): 10-15%
B3 | inhibitory | − | 
B4 | − |  | 
